SMILES strings stand for the structures. Where two headings read alike, the source gives them in different places.

Common to all, as to assay: Glasshouse assay for herbicidal activity (pre- and post-emergence), percentage phytotoxicity
Type in all cases: in vivo

The test system of one test is Lolium perenne (LOLPE). As to conditions: Lolium perenne. An outline of the steps:
(§1)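 Damage was rated visually as percent phytotoxicity, 100% meaning total kill, 20 days after pre-emergence application (made one day post-sowing) or 15 days after post-emergence application (made about 12 days post-sowing). Plants were grown under 16 h light, 65% humidity, warm species 24/18° C, cool 20/16° C.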

The test system of test [1] is Echinochloa crus-galli (ECHCG). As to conditions: Echinochloa crus-galli. An outline of the steps: as §1
Another test deals with Avena fatua (AVEFA). Particulars: Avena fatua. An outline of the steps:
as §1

Test [2] relates to Alopecurus myosuroides (ALOMY). As to conditions: Alopecurus myosuroides. The method, boiled down: as §1
The mark [3] stands for this setting: post-emergence, 360 h, 250 g/ha, post-emergence, 15 DAA, visual assessment (100%=total damage, 0%=no damage), read-out: Post-emergence herbicidal activity (percentage phytotoxicity) LOLPE POST.
[4] abbreviates: pre-emergence, 480 h, 250 g/ha, pre-emergence, 20 DAA, visual assessment (100%=total damage, 0%=no damage), read-out: Pre-emergence herbicidal activity (percentage phytotoxicity) LOLPE PRE.
Setting [5] is: post-emergence, 360 h, 250 g/ha, post-emergence, 15 DAA, visual assessment (100%=total damage, 0%=no damage), read-out: Post-emergence herbicidal activity (percentage phytotoxicity) ECHCG POST.
Where [6] appears, read: pre-emergence, 480 h, 250 g/ha, pre-emergence, 20 DAA, visual assessment (100%=total damage, 0%=no damage), read-out: Pre-emergence herbicidal activity (percentage phytotoxicity) ECHCG PRE.
Where [7] appears, read: post-emergence, 360 h, 250 g/ha, post-emergence, 15 DAA, visual assessment (100%=total damage, 0%=no damage), read-out: Post-emergence herbicidal activity (percentage phytotoxicity) AVEFA POST.
Where [8] appears, read: pre-emergence, 480 h, 250 g/ha, pre-emergence, 20 DAA, visual assessment (100%=total damage, 0%=no damage), read-out: Pre-emergence herbicidal activity (percentage phytotoxicity) AVEFA PRE.
Where [9] appears, read: post-emergence, 360 h, 250 g/ha, post-emergence, 15 DAA, visual assessment (100%=total damage, 0%=no damage), read-out: Post-emergence herbicidal activity (percentage phytotoxicity) ALOMY POST.
Setting [10] is: pre-emergence, 480 h, 250 g/ha, pre-emergence, 20 DAA, visual assessment (100%=total damage, 0%=no damage), read-out: Pre-emergence herbicidal activity (percentage phytotoxicity) ALOMY PRE.
Setting [11] is: post-emergence, 360 h, POST-emergence, rate 250 g/ha, visual score 15 DAA (100%=total damage, 0%=no damage), read-out: Post-emergence herbicidal activity (percentage phytotoxicity) LOLPE POST.
The mark [12] stands for this setting: pre-emergence, 480 h, PRE-emergence, rate 250 g/ha, visual score 20 DAA (100%=total damage, 0%=no damage), read-out: Pre-emergence herbicidal activity (percentage phytotoxicity) LOLPE PRE.
Where [13] appears, read: post-emergence, 360 h, POST-emergence, rate 250 g/ha, visual score 15 DAA (100%=total damage, 0%=no damage), read-out: Post-emergence herbicidal activity (percentage phytotoxicity) ECHCG POST.
[14] abbreviates: pre-emergence, 480 h, PRE-emergence, rate 250 g/ha, visual score 20 DAA (100%=total damage, 0%=no damage), read-out: Pre-emergence herbicidal activity (percentage phytotoxicity) ECHCG PRE.
[15] abbreviates: post-emergence, 360 h, POST-emergence, rate 250 g/ha, visual score 15 DAA (100%=total damage, 0%=no damage), read-out: Post-emergence herbicidal activity (percentage phytotoxicity) AVEFA POST.
[16] abbreviates: pre-emergence, 480 h, PRE-emergence, rate 250 g/ha, visual score 20 DAA (100%=total damage, 0%=no damage), read-out: Pre-emergence herbicidal activity (percentage phytotoxicity) AVEFA PRE.
Setting [17] is: post-emergence, 360 h, POST-emergence, rate 250 g/ha, visual score 15 DAA (100%=total damage, 0%=no damage), read-out: Post-emergence herbicidal activity (percentage phytotoxicity) ALOMY POST.
The mark [18] stands for this setting: pre-emergence, 480 h, PRE-emergence, rate 250 g/ha, visual score 20 DAA (100%=total damage, 0%=no damage), read-out: Pre-emergence herbicidal activity (percentage phytotoxicity) ALOMY PRE.

`Cc1cc(C)c(C2C(=O)CC(CC(=O)NCC3CC3(F)F)C2=O)c(C)c1` (stereo not shown) [Compound B158]: the pest or weed control at 250 g/ha was 90% in the test on Lolium perenne (LOLPE) (setting [3]); 100% in the test with Lolium perenne (LOLPE) (setting [4]); 80% in test [1] (setting [5]); 100% in test [1] (setting [6]); 80% in the test with Avena fatua (AVEFA) (setting [7]); 90% in the test with Avena fatua (AVEFA) (setting [8]). Further, the pest or weed control at 250 g/ha in test [2] (setting [9]) and in test [2] (setting [10]) was 90% each time.

Turning to `Cc1cc(C)c(C2C(=O)CC(CC(=O)NCC=C(Cl)Cl)C2=O)c(C)c1` (stereo not shown) [Compound B159], the pest or weed control at 250 g/ha in the test on Lolium perenne (LOLPE) (setting [3]) amounted to 90%; with Lolium perenne (LOLPE) (setting [4]), 90%; in test [1] (setting [5]), 80%; in test [1] (setting [6]), 90%; in the test on Avena fatua (AVEFA) (setting [7]), 90%; in the test on Avena fatua (AVEFA) (setting [8]), 0%. Also, the pest or weed control at 250 g/ha is 70% in test [2] (setting [9]) and 80% in test [2] (setting [10]).

`Cc1cc(-c2ncc(Cl)cc2F)cc(C)c1C1C(=O)CC(CC(=O)NCC2CC2(Cl)Cl)C1=O` (stereo not shown) [Compound B160]: the pest or weed control at 250 g/ha in the test with Lolium perenne (LOLPE) (setting [3]) stood at 100%; with Lolium perenne (LOLPE) (setting [4]), 90%; in test [1] (setting [5]), 100%; in test [1] (setting [6]) it was 100%; with Avena fatua (AVEFA) (setting [7]), 100%; with Avena fatua (AVEFA) (setting [8]), 80%. Also, the values for the pest or weed control at 250 g/ha in test [2] (setting [9]) and in test [2] (setting [10]) were 100% and 90%, respectively.

For `C/C=C/CNC(=O)CC1CC(=O)C(c2c(C)cc(-c3ncc(Cl)cc3F)cc2C)C1=O` (stereo not shown) [Compound B161], the pest or weed control at 250 g/ha in the test on Lolium perenne (LOLPE) (setting [3]) was determined as 100%; in the test with Lolium perenne (LOLPE) (setting [4]) it was 100%; in test [1] (setting [5]), 100%; in test [1] (setting [6]), 90%; in the test on Avena fatua (AVEFA) (setting [7]), 100%; in the test on Avena fatua (AVEFA) (setting [8]), 80%. Further, the pest or weed control at 250 g/ha in test [2] (setting [9]) came to 100%; in test [2] (setting [10]), 90%.

For the compound `Cc1cc(-c2ncc(Cl)cc2F)cc(C)c1C1C(=O)CC(CC(=O)NC/C=C/Cl)C1=O` (stereo not shown) [Compound B162], the pest or weed control at 250 g/ha in the test with Lolium perenne (LOLPE) (setting [3]) was determined as 100%; in the test with Lolium perenne (LOLPE) (setting [4]) it was 100%; in test [1] (setting [5]), 100%; in test [1] (setting [6]), 100%; with Avena fatua (AVEFA) (setting [7]), 100%; with Avena fatua (AVEFA) (setting [8]), 90%. For the same compound, the pest or weed control at 250 g/ha in test [2] (setting [9]) and in test [2] (setting [10]) was 100% in each case.

In the case of `CC(C)=CCNC(=O)CC1CC(=O)C(c2c(C)cc(C)cc2C)C1=O` (stereo not shown) [Compound B163], the pest or weed control at 250 g/ha amounted to 80% in the test on Lolium perenne (LOLPE) (setting [3]); 100% in the test with Lolium perenne (LOLPE) (setting [4]); 90% in test [1] (setting [5]); 90% in test [1] (setting [6]); 80% in the test with Avena fatua (AVEFA) (setting [7]); 50% with Avena fatua (AVEFA) (setting [8]). The figures for the pest or weed control at 250 g/ha in test [2] (setting [9]) and in test [2] (setting [10]) were 80% and 90%, respectively.

Turning to `CCc1cc(OCC(F)(F)F)cc(C)c1C1C(=O)CC(CC(=O)N2CCOCC2)C1=O` (stereo not shown) [Compound B164], the pest or weed control at 250 g/ha was 100% in the test on Lolium perenne (LOLPE) (setting [3]); 100% in the test on Lolium perenne (LOLPE) (setting [4]); 100% in test [1] (setting [5]); 100% in test [1] (setting [6]); 90% in the test on Avena fatua (AVEFA) (setting [7]); 100% with Avena fatua (AVEFA) (setting [8]). The pest or weed control at 250 g/ha in test [2] (setting [9]) and in test [2] (setting [10]) was 100% throughout.

Take `CCc1cc(OCC(F)(F)F)cc(C)c1C1C(=O)CC(CC(=O)NC(C)(C)C)C1=O` (stereo not shown) [Compound B165]: the pest or weed control at 250 g/ha (in the test on Lolium perenne (LOLPE) (setting [11]); in the test with Lolium perenne (LOLPE) (setting [12]); in test [1] (setting [13]); in test [1] (setting [14]); in the test on Avena fatua (AVEFA) (setting [15]); in the test with Avena fatua (AVEFA) (setting [16])) was 100% throughout. The pest or weed control at 250 g/ha in test [2] (setting [17]) and in test [2] (setting [18]) was 100% each time.

On to `C#CCNC(=O)CC1CC(=O)C(c2c(C)cc(OCC(F)(F)F)cc2CC)C1=O` (stereo not shown) [Compound B166], for which the pest or weed control at 250 g/ha (in the test on Lolium perenne (LOLPE) (setting [11]); with Lolium perenne (LOLPE) (setting [12]); in test [1] (setting [13]); in test [1] (setting [14]); in the test on Avena fatua (AVEFA) (setting [15]); in the test on Avena fatua (AVEFA) (setting [16])) was 100% each time. Besides, the pest or weed control at 250 g/ha in test [2] (setting [17]) and in test [2] (setting [18]) was 100% each time.

As for `CCc1cc(OCC(F)(F)F)cc(C)c1C1C(=O)CC(CC(N)=O)C1=O` (stereo not shown) [Compound B167], the pest or weed control at 250 g/ha with Lolium perenne (LOLPE) (setting [11]) worked out at 90%; in the test with Lolium perenne (LOLPE) (setting [12]), 100%; in test [1] (setting [13]), 100%; in test [1] (setting [14]), 100%; in the test on Avena fatua (AVEFA) (setting [15]) it was 100%; in the test on Avena fatua (AVEFA) (setting [16]), 90%. Besides, the pest or weed control at 250 g/ha in test [2] (setting [17]) and in test [2] (setting [18]) was 100% in each case.

In the case of `CC#Cc1cc(C)c(C2C(=O)CC(CC(N)=O)C2=O)c(C)c1` (stereo not shown) [Compound B168], the pest or weed control at 250 g/ha (in the test with Lolium perenne (LOLPE) (setting [11]); in the test on Lolium perenne (LOLPE) (setting [12]); in test [1] (setting [13]); in test [1] (setting [14]); with Avena fatua (AVEFA) (setting [15]); with Avena fatua (AVEFA) (setting [16])) was 100% throughout. Besides, the pest or weed control at 250 g/ha in test [2] (setting [17]) and in test [2] (setting [18]) was 100% throughout.

For `CCc1cc(C)cc(C)c1C1C(=O)CC(CC(=O)N2CCOCC2)C1=O` (stereo not shown) [Compound B169], the pest or weed control at 250 g/ha (in the test on Lolium perenne (LOLPE) (setting [11]); with Lolium perenne (LOLPE) (setting [12]); in test [1] (setting [13]); in test [1] (setting [14]); in the test with Avena fatua (AVEFA) (setting [15]); in the test on Avena fatua (AVEFA) (setting [16])) was 100% throughout. In addition, the pest or weed control at 250 g/ha in test [2] (setting [17]) and in test [2] (setting [18]) was 100% in each case.

With `CCc1cc(C)cc(C)c1C1C(=O)CC(CC(=O)NC(C)(C)C)C1=O` (stereo not shown) [Compound B170], the pest or weed control at 250 g/ha in the test with Lolium perenne (LOLPE) (setting [11]) is 100%; in the test on Lolium perenne (LOLPE) (setting [12]), 100%; in test [1] (setting [13]), 100%; in test [1] (setting [14]) it was 100%; in the test on Avena fatua (AVEFA) (setting [15]), 90%; in the test on Avena fatua (AVEFA) (setting [16]), 90%. The pest or weed control at 250 g/ha in test [2] (setting [17]) and in test [2] (setting [18]) was 100% in each case.

Regarding `CCc1cc(C)cc(C)c1C1C(=O)CC(CC(N)=O)C1=O` (stereo not shown) [Compound B171], the pest or weed control at 250 g/ha amounted to 90% with Lolium perenne (LOLPE) (setting [11]); 100% with Lolium perenne (LOLPE) (setting [12]); 100% in test [1] (setting [13]); 100% in test [1] (setting [14]); 100% in the test on Avena fatua (AVEFA) (setting [15]); 100% in the test on Avena fatua (AVEFA) (setting [16]). In addition, the pest or weed control at 250 g/ha in test [2] (setting [17]) and in test [2] (setting [18]) was 100% each time.

Values taken from patent publication US10206394B2, “Herbicidal compounds” (Syngenta Participations AG, priority 2014, dated 2019).
